# Values quoted from earlier work in patent publication US20250375533A1, “Sublingual Formulation of Anticancer Compound for Use in the Treatment of Autoimmune Neurodegenerative Diseases” (Vektor Pharma TF GmbH, priority 2022, published 2025).
# Read-outs that look alike come from different tables or passages of the source.
# What was measured:
# [1] = in vivo
# [2] = tested on: Bacteroides fragilis
# [3] = tested on: whole feces
# [4] = oral solution without HPβCD
# [5] = target: BCRP (ABCG2) transporter proteins (Homo sapiens, UniProt Q9UNQ0)
# Sequence of BCRP (ABCG2) transporter proteins (Q9UNQ0 whole entry): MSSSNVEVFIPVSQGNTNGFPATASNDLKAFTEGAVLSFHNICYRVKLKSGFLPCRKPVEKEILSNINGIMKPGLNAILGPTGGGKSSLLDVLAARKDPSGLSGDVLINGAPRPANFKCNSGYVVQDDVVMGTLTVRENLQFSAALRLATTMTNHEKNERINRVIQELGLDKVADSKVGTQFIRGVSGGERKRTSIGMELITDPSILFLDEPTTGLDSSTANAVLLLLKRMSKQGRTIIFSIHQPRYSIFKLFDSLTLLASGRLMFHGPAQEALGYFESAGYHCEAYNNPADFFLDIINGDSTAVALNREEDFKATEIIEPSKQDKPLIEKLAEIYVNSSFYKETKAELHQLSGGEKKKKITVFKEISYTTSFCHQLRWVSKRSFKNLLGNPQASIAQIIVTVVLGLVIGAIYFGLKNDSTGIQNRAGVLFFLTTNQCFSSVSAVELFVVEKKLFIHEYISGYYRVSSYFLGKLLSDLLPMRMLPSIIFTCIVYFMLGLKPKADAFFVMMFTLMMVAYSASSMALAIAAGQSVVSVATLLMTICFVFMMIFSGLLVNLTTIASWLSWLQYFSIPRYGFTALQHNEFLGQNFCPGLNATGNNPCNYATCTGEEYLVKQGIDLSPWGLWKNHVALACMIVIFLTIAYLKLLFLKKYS
# [6] = saliva
# [7] = tested on: Enterococcus faecalis
# [8] = tested on: Escherichia coli; settings: Escherichia coli culture
# [9] = pH 1.4 solution; for active substance maintained: with cyclodextrins
# [10] = tested on: Clostridium perfringens; settings: Clostridium perfringens culture
# [11] = 37° C.
# [12] = administered rectally
Compound,"interpatient variability, CV %, AUC inf [1]","interpatient variability, CV %, AUC t [1]","interpatient variability, CV %, Cmax [1]",solubility in water,degradation [2],degradation (deglycosylation to Cloroadenine) [3],bioavailability after oral administration [4],substrate of BCRP (ABCG2) transporter proteins [5],degradation [6],degradation [7],degradation (deglycosylation to Cloroadenine) [8],"active substance remained in solution ([9]; absence of cyclodextrins, after 8 hours)","active substance lost ([9]; absence of cyclodextrins, after about 3 hours)",active substance maintained ([9]; 8 hours),active substance maintained ([9]; almost 5 hours),degradation (deglycosylation to Cloroadenine) [10],tin value of cladribine ([11]; pH 1.0 solutions),tin value of cladribine ([11]; pH 2.0 solutions),bioavailability [12]
Nc1nc(Cl)nc2c1ncn2[C@H]1C[C@H](O)[C@@H](CO)O1 [Mavenclad],29.2%,29.8%,43.0%,,,,,,,,,,,,,,,,
"Nc1nc(Cl)nc2c1ncn2[C@H]1C[C@H](O)[C@@H](CO)O1 [cladribine, 2-chloro-2′-deoxyadenosine]",,,,slightly soluble,slowly or not at all,rapidly deglycosylated,35.3%,substrate of BCRP,slowly or not at all,slowly or not at all,rapidly deglycosylated,15%,about 50%,approximately 70%,more than 80%,rapidly deglycosylated,0.37 h,1.6 h,21%
